Experiments:
Gelatinase (MMP-2) = target: T1, Gelatinase (MMP-2) (Homo sapiens, UniProt P08253); assay: Gelatinase (MMP-2) inhibitory activity, fluorogenic peptide substrate cleavage; format: biochemical; conditions: read-out: MMP02 IC50
T1 sequence (P08253 110-660): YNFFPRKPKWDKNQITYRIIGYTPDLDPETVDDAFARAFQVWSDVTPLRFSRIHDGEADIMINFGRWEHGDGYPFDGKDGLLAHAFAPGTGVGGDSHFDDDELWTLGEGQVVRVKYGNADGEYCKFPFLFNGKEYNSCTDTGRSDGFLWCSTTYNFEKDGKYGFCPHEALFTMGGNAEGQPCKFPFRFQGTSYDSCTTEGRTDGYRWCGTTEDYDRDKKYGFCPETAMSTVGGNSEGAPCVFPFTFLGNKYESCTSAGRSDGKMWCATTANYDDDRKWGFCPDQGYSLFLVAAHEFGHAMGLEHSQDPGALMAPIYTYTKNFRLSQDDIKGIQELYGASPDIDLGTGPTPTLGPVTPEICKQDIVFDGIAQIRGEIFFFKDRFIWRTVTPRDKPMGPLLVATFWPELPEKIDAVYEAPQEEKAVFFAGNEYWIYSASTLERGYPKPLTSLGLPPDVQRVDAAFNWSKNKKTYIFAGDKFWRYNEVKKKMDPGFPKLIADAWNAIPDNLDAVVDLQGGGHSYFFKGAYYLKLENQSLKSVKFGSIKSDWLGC
Method: (§1) Gelatinase (MMP-2) inhibitory activities can be determined as follows: Stock solutions of substrate (MCA-Lys-Pro-Leu-Gly-Leu-Dpa-Ala-Arg-NH2) are prepared in DMSO at a concentration of 1.4 mM. Stock solutions of inhibitors (0.03 μM-3 mM) are also prepared in DMSO. The inhibitors are diluted into the assay solutions, and the controls use an equal volume of DMSO so that the final DMSO concentration from the inhibitor and substrate dilutions in all assays is 1.0%. Assays are performed in an assay buffer (100 mM sodium chloride, 10 μM ZnCl. Sub 2, 10 mM CaCl2, 100 mM Tris-Cl pH7.5, 0.05% Brij-35), containing 1.0% DMSO from the substrate and inhibitor additions. The substrate concentration used in the assays is 5 μM. The assays are carried out at 20-25° C. The fluorescence changes, as a result of substrate cleavage, are monitored using an excitation wavelength of 325 nm and an emission wavelength of 405 nm. The reaction mixtures are added in duplicate into appropriate wells of a 384-well assay plate. The reaction mixtures are preincubated with the inhibitors for 60 minutes The reactions are started by the addition of MMP substrate, and the fluorescence intensity changes are measured after 60 minutes The apparent enzyme activity in the presence of an inhibitor is then compared with that in the absence of any inhibitor to determine the inhibition effect of the inhibitor. These techniques are within the knowledge of one skilled in the art. The inhibition results are expressed as the inhibitor concentrations required to effect 50% inhibition (IC50) of the enzyme activity, as compared with the control (non-inhibited) reactions.

Collagenase-3 (MMP-13) = Collagenase-3 (MMP-13) (Homo sapiens, UniProt P45452); assay: Collagenase-3 (MMP-13) inhibitory activity, fluorogenic peptide substrate cleavage; format: biochemical; conditions: read-out: MMP13 IC50
Method: as §1
Collagenase-3 (MMP-13) inhibitory activity is determined as described above. Recombinant pro-collagenase-3 is activated with 1 mM APMA, and stored in the assay buffer after extensive dialysis in the assay buffer.

| IC50 (Gelatinase (MMP-2)) | IC50 (Collagenase-3 (MMP-13)) | Compound |
| --- | --- | --- |
| 2.41 µM | 1.59 µM | COc1ccc(C(=O)c2ccc(F)c(S(N)(=O)=O)c2)cc1 [Example 2, 2-Fluoro-5-(4-methoxy-benzoyl)-benzenesulfonamide] |
| 4.68 µM | 5.73 µM | COc1ccc(C(=O)c2cc(F)c(F)c(S(N)(=O)=O)c2)cc1 [Example 4, 2,3-Difluoro-5-(4-methoxy-benzoyl)-benzenesulfonamide] |
| 1.06 µM | 1.39 µM | COc1ccc(C(=O)c2ccc([N+](=O)[O-])c(S(N)(=O)=O)c2)cc1 [Example 5, 5-(4-Methoxy-benzoyl)-2-nitro-benzenesulfonamide] |
| 2.78 µM | 4.51 µM | COc1ccc(C(=O)c2ccc(C)c(S(N)(=O)=O)c2)cc1 [Example 6, 5-(4-Methoxy-benzoyl)-2-methyl-benzenesulfonamide] |
| 2.36 µM | 3.72 µM | COc1ccc(C(=O)c2ccc(SC)c(S(N)(=O)=O)c2)cc1 [Example 7, 5-(4-Methoxy-benzoyl)-2-methylsulfanyl-benzenesulfonamide] |
| 4.48 µM | 10.7 µM | COc1ccc(C(=O)c2ccc([S+](C)[O-])c(S(N)(=O)=O)c2)cc1 (stereo not drawn) [Example 8, 2-Methanesulfinyl-5-(4-methoxy-benzoyl)-benzenesulfonamide] |
| 2.93 µM | 11.3 µM | COc1ccc(C(=O)c2ccc(S(C)(=O)=O)c(S(N)(=O)=O)c2)cc1 [Example 9, 2-Methanesulfonyl-5-(4-methoxy-benzoyl)-benzenesulfonamide] |
| 3.4 µM | 0.03 µM | Cc1cc(-c2c[nH]c3cc(C(=O)c4cccc(S(N)(=O)=O)c4)ccc23)ccn1 [Example 10, 3-[3-(2-Methyl-pyridin-4-yl)-1H-indole-6-carbonyl]-benzenesulfonamide] |
| 3.95 µM | 0.075 µM | COCCCc1cc(-c2c[nH]c3cc(C(=O)c4cccc(S(N)(=O)=O)c4)ccc23)ccn1 [Example 11, 3-{3-[2-(3-Methoxy-propyl)-pyridin-4-yl]-1H-indole-6-carbonyl}-benzenesulfonamide] |
| 9.13 µM | 3.04 µM | COc1ccc(C(=O)c2ccc(Cl)c(S(=O)(=O)NCCc3ccccc3)c2)cc1 [Example 12, 2-Chloro-5-(4-methoxy-benzoyl)-N-phenethyl-benzenesulfonamide] |
| 8.8 µM | 6.9 µM | COc1ccc(C(=O)c2ccc(Cl)c(S(=O)(=O)NCCc3ccc(F)cc3)c2)cc1 [Example 13, 2-Chloro-N-[2-(4-fluoro-phenyl)-ethyl]-5(4-methoxy-benzoyl)-benzenesulfonamide] |
| 0.8 µM | 0.01 µM | NS(=O)(=O)c1cccc(C(=O)c2ccc3c(-c4ccnc(CCCN5CCOCC5)c4)c[nH]c3c2)c1 [Example 14, 3-{3-[2-(3-Morpholin-4-yl-propyl)-pyridin-4-yl]-1H-indole-6-carbonyl}-benzenesulfonamide] |
| 5.16 µM | 10 µM | NS(=O)(=O)c1cc(C(=O)c2ccc(O)cc2)ccc1Cl [Example 15, 2-Chloro-5-(4-hydroxy-benzoyl)-benzenesulfonamide] |
| 1.58 µM | 1.22 µM | NS(=O)(=O)c1cc(C(=O)c2ccc(OCCCc3ccccc3)cc2)ccc1Cl [Example 19, 2-Chloro-5-[4-(3-phenyl-propoxy)-benzoyl]-benzenesulfonamide] |
| 11 µM | 13.6 µM | CCCCCOc1ccc(C(=O)c2ccc(Cl)c(S(N)(=O)=O)c2)cc1 [Example 20, 2-Chloro-5-(4-pentyloxy-benzoyl)-benzenesulfonamide] |
| 4.73 µM | 0.86 µM | CCCCCCOc1ccc(C(=O)c2ccc(Cl)c(S(N)(=O)=O)c2)cc1 [Example 21, 2-Chloro-5-(4-hexyloxy-benzoyl)-benzenesulfonamide] |
| 14 µM | 2.05 µM | NS(=O)(=O)c1cc(C(=O)c2ccc(Br)cc2)ccc1Cl [Example 22, 5-(4-Bromo-benzoyl)-2-chloro-benzenesulfonamide] |
| 4.15 µM | 0.95 µM | NS(=O)(=O)c1cc(C(=O)c2ccc(Br)cc2)ccc1Cl [Example 23, 5-(4-Bromo-benzoyl)-2-chloro-benzenesulfonamide] |
| 9.16 µM | 2.1 µM | Cc1cccc(C(=O)c2ccc(Cl)c(S(N)(=O)=O)c2)c1 [Example 24, 2-Chloro-5-(3-methyl-benzoyl)-benzenesulfonamide] |
| 2.17 µM | 5.3 µM | NS(=O)(=O)c1cc(C(=O)c2ccc(OC(F)(F)F)cc2)ccc1Cl [Example 25, 2-Chloro-5-(4-trifluoromethoxy-benzoyl)-benzenesulfonamide] |
| 17.2 µM | 10.5 µM | CC(C)(C)c1ccc(C(=O)c2ccc(Cl)c(S(N)(=O)=O)c2)cc1 [Example 26, 5-(4-tert-Butyl-benzoyl)-2-chloro-benzenesulfonamide] |
| 4.26 µM | 4.49 µM | NS(=O)(=O)c1cc(C(=O)c2ccc(C3CCCC3)cc2)ccc1Cl [Example 28, 2-Chloro-5-(4-cyclopentyl-benzoyl)-benzenesulfonamide] |
| 13.3 µM | 11.3 µM | NS(=O)(=O)c1cc(C(=O)c2ccc(C3CCCCC3)cc2)ccc1Cl [Example 29, 2-Chloro-5-(4-cyclohexyl-benzoyl)-benzenesulfonamide] |
| > 30 µM |  | CCc1nn(Cc2ccccc2)c2cc(C(=O)c3ccc(Cl)c(S(N)(=O)=O)c3)ccc12 [Example 111, 5-(1-Benzyl-3-ethyl-1H-indazole-6-carbonyl)-2-chloro-benzenesulfonamide] |
|  | 0.129 µM | NS(=O)(=O)c1cc(C(=O)c2ccc3c(CCC4CCCC4)n[nH]c3c2)ccc1Cl [Example 112, 2-Chloro-5-[3-(2-cyclopentyl-ethyl)-1H-indazole-6-carbonyl]-benzenesulfonamide] |
|  | 1.6 µM | NS(=O)(=O)c1cc(C(=O)c2ccc3c(-c4ccsc4)c[nH]c3c2)ccc1Cl [Example 127, 2-Chloro-5-(3-thiophen-3-yl-1H-indole-6-carbonyl)-benzenesulfonamide] |

| Compound | IC50 (Gelatinase (MMP-2)) | IC50 (Collagenase-3 (MMP-13)) |
| --- | --- | --- |
| 2-Chloro-5-(3-hydroxy-4-methoxy-benzoyl)-benzenesulfonamide [Example 56] | > 30 µM | 26.7 µM |
| 2-Chloro-5-(4-cyclopropyl-benzoyl)-benzenesulfonamide [Example 27] | 7.46 µM | 9.64 µM |
| 2-Chloro-5-(4-pyridin-4-yl-benzoyl)-benzenesulfonamide [Example 42] | 0.51 µM | 1.5 µM |
| 2-Chloro-5-(4-thiophen-2-yl-benzoyl)-benzenesulfonamide [Example 39] | 13.3 µM | 9.06 µM |
| CC(C)COc1ccc(C(=O)c2ccc(Cl)c(S(N)(=O)=O)c2)cc1 [Example 17, 2-Chloro-5-(4-isobutoxy-benzoyl)-benzenesulfonamide] | 2.3 µM | 3.71 µM |
| CC(C)CCOc1ccc(C(=O)c2ccc(Cl)c(S(N)(=O)=O)c2)cc1 [Example 18, 2-Chloro-5-[4-(3-methyl-butoxy)-benzoyl]-benzenesulfonamide] | 0.7 µM | 0.6 µM |
| C[Si](C)(C)C#Cc1ccc(C(=O)c2ccc(Cl)c(S(N)(=O)=O)c2)cc1 [Example 30, 2-Chloro-5-(4-trimethyl-silanylethynyl-benzoyl)-benzenesulfonamide] | 1.23 µM | 1.69 µM |

From US20130096105A1, “ArylSulfonamide Based Matrix Metalloprotease Inhibitors” (NOVARTIS AG, priority 2008, published 2013)
